From the OligoGym collection
HELM strings list units from the 5' end as sugar, base in round brackets, then linkage (d deoxyribose, r ribose, m 2'-O-methyl, p phosphodiester). Strings are as the collection lists them; they lack the last nucleoside at the 3' end of the tested compound. [moe] = 2'-O-(2-methoxyethyl) (MOE); [sp] = phosphorothioate linkage; [m5C] = 5-methylcytosine

Target: PRNP
Assay: mouse, dose not given
Settings: ASO

| Substance | 3 h FOB score [score 0-7] |
| --- | --- |
| RNA1{[moe](T)[sp].[moe](A)p.[moe](T)p.[moe](G)p.[moe](T)p.d(T)[sp].d(T)[sp].d(T)[sp].d([m5C])[sp].d([m5C])[sp].d(A)[sp].d(G)[sp].d(T)[sp].d(G)[sp].[moe]([m5C])p.[moe]([m5C])p.[moe]([m5C])[sp].[moe](A)}$$$$ (last 3' nucleoside missing) | 5.25 |
| RNA1{[moe](T)[sp].[moe](A)p.[moe]([m5C])p.[moe](T)p.[moe](T)[sp].d(G)[sp].d(T)[sp].d([m5C])[sp].d(A)[sp].d(G)[sp].d(T)[sp].d(T)[sp].d(T)[sp].d(T)[sp].d(T)[sp].[moe]([m5C])p.[moe]([m5C])p.[moe]([m5C])[sp].[moe]([m5C])}$$$$ (last 3' nucleoside missing) | 4.5 |
| RNA1{[moe](T)[sp].[moe](A)p.[moe]([m5C])p.[moe](T)p.[moe]([m5C])[sp].d(T)[sp].d(A)[sp].d(T)[sp].d(G)[sp].d(T)[sp].d(T)[sp].d(T)[sp].d(T)[sp].d([m5C])[sp].d([m5C])[sp].[moe](A)p.[moe](G)p.[moe](T)[sp].[moe](G)}$$$$ (last 3' nucleoside missing) | 1.75 |
| RNA1{[moe](T)[sp].[moe](G)p.[moe](G)p.[moe](A)p.[moe](A)[sp].d(G)[sp].d(A)[sp].d([m5C])[sp].d(T)[sp].d(T)[sp].d(G)[sp].d(T)[sp].d(G)[sp].d(T)[sp].d(T)[sp].[moe](A)p.[moe](G)p.[moe](A)[sp].[moe](T)}$$$$ (last 3' nucleoside missing) | 6.5 |
| RNA1{[moe](T)[sp].[moe](G)p.[moe](G)p.[moe](G)p.[moe](A)[sp].d(G)[sp].d(T)[sp].d(A)[sp].d(T)[sp].d([m5C])[sp].d(A)[sp].d(A)[sp].d(T)[sp].d(T)[sp].d(T)[sp].[moe](A)p.[moe](A)p.[moe](G)[sp].[moe]([m5C])}$$$$ (last 3' nucleoside missing) | 0 |
| RNA1{[moe](T)[sp].[moe](G)p.[moe](G)p.[moe](T)p.[moe](A)[sp].d(G)[sp].d(T)[sp].d(T)[sp].d(T)[sp].d(T)[sp].d(T)[sp].d([m5C])[sp].d(A)[sp].d(A)[sp].d(A)[sp].[moe](T)p.[moe]([m5C])p.[moe](A)[sp].[moe](A)}$$$$ (last 3' nucleoside missing) | 0 |
| RNA1{[moe](T)[sp].[moe](G)p.[moe](G)p.[moe](T)p.[moe](G)[sp].d(A)[sp].d(T)[sp].d(T)[sp].d(T)[sp].d(T)[sp].d(T)[sp].d(T)[sp].d([m5C])[sp].d([m5C])[sp].d(T)[sp].[moe](T)p.[moe](T)p.[moe]([m5C])[sp].[moe](T)}$$$$ (last 3' nucleoside missing) | 0 |
| RNA1{[moe](T)[sp].[moe](G)p.[moe](G)p.[moe](T)p.[moe](G)[sp].d(T)[sp].d(T)[sp].d(A)[sp].d(T)[sp].d(A)[sp].d([m5C])[sp].d(A)[sp].d(T)[sp].d(T)[sp].d(T)[sp].[moe](A)p.[moe](G)p.[moe](G)[sp].[moe]([m5C])}$$$$ (last 3' nucleoside missing) | 1 |
| RNA1{[moe](T)[sp].[moe](G)p.[moe](G)p.[moe](T)p.[moe](T)[sp].d(A)[sp].d(G)[sp].d([m5C])[sp].d(T)[sp].d(T)[sp].d(T)[sp].d(T)[sp].d(T)[sp].d(T)[sp].d(T)[sp].[moe]([m5C])p.[moe](A)p.[moe]([m5C])[sp].[moe](T)}$$$$ (last 3' nucleoside missing) | 6.25 |
| RNA1{[moe](T)[sp].[moe](G)p.[moe](G)p.[moe](T)p.[moe](T)[sp].d(A)[sp].d(T)[sp].d(T)[sp].d(T)[sp].d(T)[sp].d(A)[sp].d(A)[sp].d(T)[sp].d(A)[sp].d(G)[sp].[moe](A)p.[moe](T)p.[moe](G)[sp].[moe](T)}$$$$ (last 3' nucleoside missing) | 1 |
| RNA1{[moe](T)[sp].[moe](G)p.[moe](G)p.[moe](T)p.[moe](T)[sp].d(A)[sp].d([m5C])[sp].d(A)[sp].d(T)[sp].d(A)[sp].d(A)[sp].d(T)[sp].d(G)[sp].d(T)[sp].d(T)[sp].[moe]([m5C])p.[moe](A)p.[moe](T)[sp].[moe](T)}$$$$ (last 3' nucleoside missing) | 4 |
| RNA1{[moe](T)[sp].[moe](G)p.[moe](G)p.[moe]([m5C])p.[moe](A)[sp].d([m5C])[sp].d(T)[sp].d(T)[sp].d(T)[sp].d([m5C])[sp].d(T)[sp].d(T)[sp].d(T)[sp].d(T)[sp].d(T)[sp].[moe](A)p.[moe](T)p.[moe](T)[sp].[moe](T)}$$$$ (last 3' nucleoside missing) | 0 |
| RNA1{[moe](T)[sp].[moe](G)p.[moe](G)p.[moe]([m5C])p.[moe](A)p.[moe]([m5C])p.d(T)[sp].d(T)[sp].d(T)[sp].d([m5C])[sp].d(T)[sp].d(T)[sp].d(T)[sp].d(T)[sp].d(T)[sp].d(A)[sp].[moe](T)p.[moe](T)[sp].[moe](T)}$$$$ (last 3' nucleoside missing) | 0.25 |
| RNA1{[moe](T)[sp].[moe](G)p.[moe](G)p.[moe]([m5C])p.[moe](T)[sp].d(T)[sp].d(A)[sp].d([m5C])[sp].d(T)[sp].d([m5C])[sp].d(G)[sp].d(G)[sp].d([m5C])[sp].d(T)[sp].d(T)[sp].[moe](G)p.[moe](T)p.[moe](T)[sp].[moe]([m5C])}$$$$ (last 3' nucleoside missing) | 3.75 |
| RNA1{[moe](T)[sp].[moe](G)p.[moe](T)p.[moe](A)p.[moe](G)[sp].d(A)[sp].d(A)[sp].d(G)[sp].d([m5C])[sp].d(A)[sp].d(T)[sp].d(T)[sp].d(G)[sp].d(T)[sp].d(A)[sp].[moe]([m5C])p.[moe]([m5C])p.[moe](T)[sp].[moe]([m5C])}$$$$ (last 3' nucleoside missing) | 4.5 |
| RNA1{[moe](T)[sp].[moe](G)p.[moe](T)p.[moe](G)p.[moe](A)[sp].d([m5C])[sp].d(A)[sp].d(A)[sp].d(T)[sp].d(A)[sp].d(T)[sp].d(T)[sp].d(T)[sp].d(A)[sp].d([m5C])[sp].[moe](T)p.[moe]([m5C])p.[moe](T)[sp].[moe](T)}$$$$ (last 3' nucleoside missing) | 2.25 |
| RNA1{[moe](T)[sp].[moe](G)p.[moe](T)p.[moe](G)p.[moe](T)[sp].d([m5C])[sp].d(A)[sp].d(T)[sp].d(A)[sp].d(A)[sp].d(T)[sp].d(T)[sp].d(T)[sp].d(T)[sp].d([m5C])[sp].[moe](T)p.[moe](T)p.[moe](A)[sp].[moe](G)}$$$$ (last 3' nucleoside missing) | 1 |
| RNA1{[moe](T)[sp].[moe](G)p.[moe](T)p.[moe](G)p.[moe]([m5C])[sp].d(T)[sp].d(T)[sp].d(A)[sp].d(T)[sp].d(T)[sp].d(A)[sp].d(T)[sp].d(T)[sp].d([m5C])[sp].d(A)[sp].[moe](T)p.[moe](G)p.[moe](T)[sp].[moe](T)}$$$$ (last 3' nucleoside missing) | 0 |
| RNA1{[moe](T)[sp].[moe](G)p.[moe](T)p.[moe](G)p.[moe]([m5C])[sp].d(T)[sp].d(T)[sp].d(T)[sp].d(T)[sp].d([m5C])[sp].d([m5C])[sp].d(T)[sp].d(T)[sp].d(T)[sp].d([m5C])[sp].[moe](A)p.[moe](G)p.[moe](A)[sp].[moe](T)}$$$$ (last 3' nucleoside missing) | 0.75 |
| RNA1{[moe](T)[sp].[moe](G)p.[moe](T)p.[moe](T)p.[moe](A)[sp].d(T)[sp].d(T)[sp].d(T)[sp].d([m5C])[sp].d([m5C])[sp].d(T)[sp].d([m5C])[sp].d(T)[sp].d(G)[sp].d(T)[sp].[moe](G)p.[moe]([m5C])p.[moe](T)[sp].[moe](T)}$$$$ (last 3' nucleoside missing) | 3.75 |
| RNA1{[moe](T)[sp].[moe](G)p.[moe](T)p.[moe](T)p.[moe](T)[sp].d(G)[sp].d(T)[sp].d(T)[sp].d(T)[sp].d([m5C])[sp].d(T)[sp].d(T)[sp].d([m5C])[sp].d([m5C])[sp].d(A)[sp].[moe](T)p.[moe](T)p.[moe](G)[sp].[moe]([m5C])}$$$$ (last 3' nucleoside missing) | 1 |
| RNA1{[moe](T)[sp].[moe](G)p.[moe](T)p.[moe]([m5C])p.[moe](A)[sp].d(G)[sp].d(T)[sp].d(T)[sp].d(T)[sp].d(T)[sp].d(T)[sp].d([m5C])[sp].d([m5C])[sp].d([m5C])[sp].d([m5C])[sp].[moe](A)p.[moe]([m5C])p.[moe](A)[sp].[moe](T)}$$$$ (last 3' nucleoside missing) | 0 |
| RNA1{[moe](T)[sp].[moe](G)p.[moe](T)p.[moe]([m5C])p.[moe](A)p.[moe](G)p.d(T)[sp].d(T)[sp].d(T)[sp].d(T)[sp].d(T)[sp].d([m5C])[sp].d([m5C])[sp].d([m5C])[sp].d([m5C])[sp].d(A)[sp].[moe]([m5C])p.[moe](A)[sp].[moe](T)}$$$$ (last 3' nucleoside missing) | 0.5 |
| RNA1{[moe](T)[sp].[moe](G)p.[moe](T)p.[moe]([m5C])p.[moe](A)p.d(G)[sp].d(T)[sp].d(T)[sp].d(T)[sp].d(T)[sp].d(T)[sp].d([m5C])[sp].d([m5C])[sp].d([m5C])[sp].[moe]([m5C])[sp].[moe](A)p.[moe]([m5C])p.[moe](A)}$$$$ (last 3' nucleoside missing) | 0 |
| RNA1{[moe](T)[sp].[moe](G)p.[moe](T)p.[moe]([m5C])p.[moe](A)p.d(T)[sp].d(A)[sp].d(A)[sp].d(T)[sp].d(T)[sp].d(T)[sp].d(T)[sp].d([m5C])[sp].d(T)[sp].[moe](T)p.[moe](A)p.[moe](G)[sp].[moe]([m5C])}$$$$ (last 3' nucleoside missing) | 0 |
| RNA1{[moe](T)[sp].[moe](G)p.[moe](T)p.[moe]([m5C])p.d(A)[sp].d(G)[sp].d(T)[sp].d(T)[sp].d(T)[sp].d(T)[sp].d(T)[sp].d([m5C])[sp].d([m5C])[sp].d([m5C])[sp].[moe]([m5C])p.[moe](A)p.[moe]([m5C])p.[moe](A)[sp].[moe](T)}$$$$ (last 3' nucleoside missing) | 0 |
